Consider 16 molecules from PubChem BioAssay AID330 (DTP/NCI, 2004).

Several values for one entry are separate records, joined by “and”; a condition that tells them apart may be missing. Identical values can stand only once. Toxic doses and inconclusive results are not listed.

For the test, the system named is P388 leukemia ip, CD2F1 mice, survival T/C. Briefly: NCI In Vivo Anticancer Drug Screen. Data for tumor model P388 Leukemia (intraperitoneal) in CD2F1 (CDF1) mice. The following applies: endpoint: median survival time, higher = longer survival. The method, boiled down: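 Mice carrying the transplanted tumor received test compound or vehicle. Survival was recorded in each group, and the value is the treated-group measurement divided by that of the vehicle-treated control group.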

The mark [1] stands for this setting: dose: 50.0 mg/kg/injection, schedule: Q01DX009 (ip), vehicle: saline with Tween-80.
Where [2] appears, read: dose: 100.0 mg/kg/injection, schedule: Q01DX009 (ip), vehicle: saline with Tween-80.
Where [3] appears, read: dose: 100.0 mg/kg/injection, schedule: Q01DX009 (ip), vehicle: saline.
Setting [4] is: dose: 200.0 mg/kg/injection, schedule: Q01DX009 (ip), vehicle: saline.
Setting [5] is: dose: 50.0 mg/kg/injection, schedule: Q01DX005 (ip), vehicle: Klucel (hydroxypropylcellulose) (HPC).
The mark [6] stands for this setting: dose: 100.0 mg/kg/injection, schedule: Q01DX005 (ip), vehicle: Klucel (hydroxypropylcellulose) (HPC).
The mark [7] stands for this setting: dose: 50.0 mg/kg/injection, schedule: Q01DX005 (ip), vehicle: saline with Tween-80.
Where [8] appears, read: dose: 100.0 mg/kg/injection, schedule: Q01DX005 (ip), vehicle: saline with Tween-80.
Setting [9] is: dose: 200.0 mg/kg/injection, schedule: Q01DX005 (ip), vehicle: saline with Tween-80.

Turning to `CCc1ccc2nc3ccccc3c(NCCCCCCNc3c4ccccc4nc4ccc(CC)cc34)c2c1`, the T/C is 100 % of control (dose: 0.62 mg/kg/injection, schedule: Q01DX009 (ip), vehicle: other); 114 % of control (dose: 1.25 mg/kg/injection, schedule: Q01DX009 (ip), vehicle: other); 105 % of control (dose: 2.5 mg/kg/injection, schedule: Q01DX009 (ip), vehicle: other); 116 % of control (dose: 5.0 mg/kg/injection, schedule: Q01DX009 (ip), vehicle: other); 124 % of control (dose: 10.0 mg/kg/injection, schedule: Q01DX009 (ip), vehicle: other).
Turning to `NC(Cc1c[nH]c2ccc([N+](=O)[O-])cc12)C(=O)O` (stereo not drawn), the T/C runs as follows: under setting [1], 92 % of control; under setting [2], 91 % of control; (dose: 200.0 mg/kg/injection, schedule: Q01DX009 (ip), vehicle: saline with Tween-80) 94 % of control; (dose: 400.0 mg/kg/injection, schedule: Q01DX009 (ip), vehicle: saline with Tween-80) 91 % of control.
In the case of `CSCCC(N)C(=O)O` (stereo not drawn), the T/C is, setting by setting: (dose: 25.0 mg/kg/injection, schedule: Q01DX005 (ip), vehicle: saline) 102 % of control; (dose: 25.0 mg/kg/injection, schedule: Q01DX009 (ip), vehicle: other) 107 % of control; (dose: 25.0 mg/kg/injection, schedule: Q01DX009 (ip), vehicle: saline with Tween-80) 103 % of control; (dose: 37.5 mg/kg/injection, schedule: Q01DX009 (ip), vehicle: Klucel (hydroxypropylcellulose) (HPC)) 122 % of control; (dose: 40.0 mg/kg/injection, schedule: Q01DX009 (ip), vehicle: saline with Tween-80) 105 % of control; (dose: 50.0 mg/kg/injection, schedule: Q01DX005 (ip), vehicle: saline) 99 % of control. Besides, the T/C runs as follows: (dose: 50.0 mg/kg/injection, schedule: Q01DX009 (ip), vehicle: other) 100 % of control and 107 % of control; under setting [1], 107 % of control; (dose: 75.0 mg/kg/injection, schedule: Q01DX009 (ip), vehicle: Klucel (hydroxypropylcellulose) (HPC)) 103 % of control; (dose: 75.0 mg/kg/injection, schedule: Q01DX009 (ip), vehicle: other) 98 % of control and 94 % of control; (dose: 80.0 mg/kg/injection, schedule: Q01DX009 (ip), vehicle: saline with Tween-80) 100 % of control and 114 % of control; (dose: 100.0 mg/kg/injection, schedule: Q01DX005 (ip), vehicle: saline) 107 % of control. Further, the T/C by setting is: (dose: 100.0 mg/kg/injection, schedule: Q01DX009 (ip), vehicle: other) 100 % of control and 107 % of control; under setting [2], 108 % of control; under setting [3], 102 % of control; (dose: 150.0 mg/kg/injection, schedule: Q01DX009 (ip), vehicle: other) 103 % of control and 106 % of control; (dose: 160.0 mg/kg/injection, schedule: Q01DX009 (ip), vehicle: saline with Tween-80) 99 % of control and 102 % of control; (dose: 200.0 mg/kg/injection, schedule: Q01DX005 (ip), vehicle: saline) 101 % of control. Also, the T/C by setting is: (dose: 200.0 mg/kg/injection, schedule: Q01DX009 (ip), vehicle: other) 110 % of control; under setting [4], 112 % of control; (dose: 225.0 mg/kg/injection, schedule: Q01DX009 (ip), vehicle: other) 109 % of control; (dose: 320.0 mg/kg/injection, schedule: Q01DX009 (ip), vehicle: saline with Tween-80) 106 % of control and 97 % of control; (dose: 400.0 mg/kg/injection, schedule: Q01DX005 (ip), vehicle: saline) 103 % of control; (dose: 400.0 mg/kg/injection, schedule: Q01DX009 (ip), vehicle: saline) 108 % of control. The T/C (dose: 800.0 mg/kg/injection, schedule: Q01DX009 (ip), vehicle: saline) is 108 % of control.
Turning to `O=[N+]([O-])c1ccc(N=Nc2ccc(N(CCCl)CCCl)cc2)cc1`, the T/C (dose: 50.0 mg/kg/injection, schedule: Q04DX003 (ip), vehicle: Klucel (hydroxypropylcellulose) (HPC)) was 100 % of control; the T/C (dose: 100.0 mg/kg/injection, schedule: Q04DX003 (ip), vehicle: Klucel (hydroxypropylcellulose) (HPC)) is 100 % of control; the T/C (dose: 200.0 mg/kg/injection, schedule: Q04DX003 (ip), vehicle: Klucel (hydroxypropylcellulose) (HPC)) is 106 % of control.
For `NCCCCCC(CCN)SCC1OC(n2cnc3c(N)ncnc32)C(O)C1O` (stereo not drawn), the T/C is, setting by setting: (dose: 15.0 mg/kg/injection, schedule: Q01DX005 (ip), vehicle: saline with Tween-80) 109 % of control; (dose: 30.0 mg/kg/injection, schedule: Q01DX005 (ip), vehicle: saline with Tween-80) 103 % of control; (dose: 60.0 mg/kg/injection, schedule: Q01DX005 (ip), vehicle: saline with Tween-80) 96 % of control.
For the molecule `O=Nc1sc(=S)n(N2CCCCC2)c1O`, the T/C under setting [5] is 99 % of control and the T/C under setting [6] is 96 % of control.
On to `CC(=O)OC1=C(C)C2=C3OC(=O)C(C)=C3CC[C@@]2(C)[C@@H](Cl)[C@@H]1Cl`, for which the T/C was 104 % of control and 113 % of control (dose: 25.0 mg/kg/injection, schedule: Q01DX005 (ip), vehicle: Klucel (hydroxypropylcellulose) (HPC)); 104 % of control and 108 % of control and 111 % of control under setting [5]; 114 % of control and 117 % of control and 121 % of control under setting [6]; 108 % of control and 119 % of control and 120 % of control (dose: 200.0 mg/kg/injection, schedule: Q01DX005 (ip), vehicle: Klucel (hydroxypropylcellulose) (HPC)).
Take `O=S1(=O)CC(SC2CS(=O)(=O)C2)C1`: the T/C is, setting by setting: (dose: 100.0 mg/kg/injection, schedule: Q01DX001 (ip), vehicle: saline with Tween-80) 103 % of control; (dose: 200.0 mg/kg/injection, schedule: Q01DX001 (ip), vehicle: saline with Tween-80) 101 % of control; (dose: 400.0 mg/kg/injection, schedule: Q01DX001 (ip), vehicle: saline with Tween-80) 100 % of control.
With `Cc1ccc(S(=O)(=O)C23N=NC(C)(C)C2C2CC3C3CN=NC32)cc1` (stereo not drawn), the T/C by setting is: (dose: 100.0 mg/kg/injection, schedule: Q01DX001 (ip), vehicle: Klucel (hydroxypropylcellulose) (HPC)) 103 % of control; (dose: 200.0 mg/kg/injection, schedule: Q01DX001 (ip), vehicle: Klucel (hydroxypropylcellulose) (HPC)) 109 % of control; (dose: 400.0 mg/kg/injection, schedule: Q01DX001 (ip), vehicle: Klucel (hydroxypropylcellulose) (HPC)) 102 % of control.
For `O=C(O)c1cc2ccc3cccc4ccc(c1)c2c34`, the T/C was 96 % of control under setting [7] and 102 % of control under setting [8].
On to `CCCOC(=O)c1ccc2nc(NC(=O)OC)[nH]c2c1`, for which the T/C is 96 % of control under setting [7], 91 % of control under setting [8] and 97 % of control under setting [9].
Take `COC1/C=C\OC2(C)Oc3c(C)c(O)c4c(c3C2=O)C2=NC(C)(C)N(c3ccccc3)C2=C(NC(=O)/C(C)=C\C=C\C(C)C(O)C(C)C(O)C(C)C(OC(C)=O)C1C)C4=O` (stereo not drawn): the T/C is 100 % of control (dose: 25.0 mg/kg/injection, schedule: Q01DX009 (ip), vehicle: Klucel (hydroxypropylcellulose) (HPC)); 103 % of control (dose: 50.0 mg/kg/injection, schedule: Q01DX009 (ip), vehicle: Klucel (hydroxypropylcellulose) (HPC)); 98 % of control (dose: 100.0 mg/kg/injection, schedule: Q01DX009 (ip), vehicle: Klucel (hydroxypropylcellulose) (HPC)); 107 % of control (dose: 200.0 mg/kg/injection, schedule: Q01DX009 (ip), vehicle: Klucel (hydroxypropylcellulose) (HPC)).
With `O=C1N(CC2CO2)CCN1CC1CO1` (stereo not drawn), the T/C runs as follows: (dose: 25.0 mg/kg/injection, schedule: Q01DX009 (ip), vehicle: saline) 120 % of control; under setting [3], 155 % of control and 159 % of control; under setting [4], 206 % of control and 215 % of control.
As to `Cn1c(-c2ccccc2)c(C(=O)CC(=O)CN2CCOCC2)c2ccccc21`, the T/C is 98 % of control (dose: 100.0 mg/kg/injection, schedule: Q01DX001 (ip), vehicle: saline); 108 % of control (dose: 200.0 mg/kg/injection, schedule: Q01DX001 (ip), vehicle: saline); 97 % of control (dose: 400.0 mg/kg/injection, schedule: Q01DX001 (ip), vehicle: saline).
Consider `c1nc(SC2CCCC2)c2[nH]cnc2n1`, for which the T/C (dose: 100.0 mg/kg/injection, schedule: Q04DX003 (ip), vehicle: saline with Tween-80) was 118 % of control; the T/C (dose: 200.0 mg/kg/injection, schedule: Q04DX003 (ip), vehicle: saline with Tween-80) is 104 % of control; the T/C (dose: 400.0 mg/kg/injection, schedule: Q04DX003 (ip), vehicle: saline with Tween-80) is 118 % of control.
For the molecule `C=CCSCC1Nc2cc(Cl)c(S(N)(=O)=O)cc2S(=O)(=O)N1C` (stereo not drawn), the T/C reads like this: under setting [7], 100 % of control; under setting [8], 105 % of control; under setting [9], 101 % of control.
